Results published in US12209102B2, “Heterocyclic compounds and uses thereof” (Kumquat Biosciences Inc., priority 2022, dated 2025).

Tests used:
GP2D cells = assay: Ras cellular assay, growth of cells with K-Ras G12D mutation (CellTiter-Glo); type: cell-based; settings: cell growth, Example 9, G12D mutation, read-out: IC50 against GP2D cells
A549 cells = assay: Ras cellular assay, growth of cells with K-Ras G12S mutation (CellTiter-Glo); type: cell-based; settings: Homo sapiens, cell growth, Example 9, G12S mutation, read-out: IC50 against A549 cells
How it was run: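 Growth inhibition IC50 values come from four-parameter fits of CellTiter-Glo luminescence, read about 6 days after compound addition. G12S-mutant A549 cells (e.g. 800/well, RPMI-1640 + 10% heat-inactivated FBS) were plated in tissue-culture-treated or ultra-low-attachment 384-well format. Dosing began the following day with serial dilutions, e.g. 10 points, 3-fold.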

K-Ras G12D = molecular target: T1, K-Ras G12D (Homo sapiens, UniProt P01116, G12D); assay: HTRF resonance energy transfer assay, K-Ras G12D / SOS1 interaction; type: biochemical; settings: HTRF assay of Example 5; read-out: IC50 against K-Ras G12D
T1 construct: made in house; host or cells: E. coli BL21 (DE3)
T1 sequence (P01116 1-188 isoform P01116-2 G12D): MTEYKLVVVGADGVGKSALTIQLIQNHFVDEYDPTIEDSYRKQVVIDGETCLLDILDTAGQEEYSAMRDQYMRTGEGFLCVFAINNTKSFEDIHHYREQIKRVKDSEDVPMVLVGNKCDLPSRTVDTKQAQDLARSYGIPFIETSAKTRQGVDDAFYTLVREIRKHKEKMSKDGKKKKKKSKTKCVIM
How it was run: (§1)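 Buffer about 5 mM HEPES pH 7.4 with ~150 mM NaCl, ~1 mM DTT, 0.05% BSA, 0.0025% (v/v) Igepal. Protein constructs used at molarity matching the IC50 range studied (e.g. ~500 nM). FRET between tagged K-Ras and hSOS1 measured after short incubation.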

K-Ras G12S = molecular target: T2, K-Ras G12S (Homo sapiens, UniProt P01116, G12S); assay: HTRF resonance energy transfer assay, K-Ras G12S / SOS1 interaction; type: biochemical; settings: HTRF assay of Example 5; read-out: IC50 against K-Ras G12S
T2 construct: made in house; host or cells: E. coli BL21 (DE3)
T2 sequence (P01116 1-188 isoform P01116-2 G12S): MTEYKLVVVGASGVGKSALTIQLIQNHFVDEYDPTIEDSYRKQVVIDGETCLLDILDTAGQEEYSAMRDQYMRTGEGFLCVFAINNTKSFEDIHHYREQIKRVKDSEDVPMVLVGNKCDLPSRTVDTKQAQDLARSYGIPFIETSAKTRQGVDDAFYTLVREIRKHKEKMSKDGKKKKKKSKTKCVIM
How it was run: as §1

K-Ras G12V = molecular target: T3, K-Ras G12V (Homo sapiens, UniProt P01116, G12V); assay: HTRF resonance energy transfer assay, K-Ras G12V / SOS1 interaction; type: biochemical; settings: HTRF assay of Example 5; read-out: IC50 against K-Ras G12V
T3 construct: made in house; host or cells: E. coli BL21 (DE3)
T3 sequence (P01116 1-188 isoform P01116-2 G12V): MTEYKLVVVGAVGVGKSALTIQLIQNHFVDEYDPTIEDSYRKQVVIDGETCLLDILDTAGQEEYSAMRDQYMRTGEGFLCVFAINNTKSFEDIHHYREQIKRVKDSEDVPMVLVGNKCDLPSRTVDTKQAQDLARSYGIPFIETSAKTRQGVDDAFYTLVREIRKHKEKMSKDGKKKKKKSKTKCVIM
How it was run: as §1

K-Ras WT = molecular target: T4, K-Ras WT (Homo sapiens, UniProt P01116); assay: HTRF resonance energy transfer assay, K-Ras WT / SOS1 interaction; type: biochemical; settings: HTRF assay of Example 5; read-out: IC50 against K-Ras WT
T4 construct: made in house; host or cells: E. coli BL21 (DE3)
T4 sequence (P01116 1-188 isoform P01116-2): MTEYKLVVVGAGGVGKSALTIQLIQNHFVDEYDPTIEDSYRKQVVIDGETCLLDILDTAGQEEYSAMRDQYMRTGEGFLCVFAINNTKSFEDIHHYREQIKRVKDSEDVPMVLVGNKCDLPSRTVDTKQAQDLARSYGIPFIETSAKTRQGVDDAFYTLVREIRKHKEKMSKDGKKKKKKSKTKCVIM
How it was run: as §1

SW620 cells = assay: Ras cellular assay, growth of cells with K-Ras G12V mutation (CellTiter-Glo); type: cell-based; settings: Homo sapiens, SW-620; cell growth, Example 9, G12V mutation; read-out: IC50 against SW620 cells
How it was run: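 IC50 values came from a four-parameter fit of CellTiter-Glo viability, read roughly 6 days after dosing with e.g. a 10-point threefold dilution series. G12V-mutant SW620 cells (e.g. 800 per well) had been plated the previous day in RPMI-1640/10% heat-inactivated FBS, on tissue culture-treated or ultra-low attachment plates.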

CN(C)C(=O)C1CC(N2CCOc3c(Cl)c(-c4ccc(F)c5sc(N)c(C#N)c45)c(F)c4nc(OC[C@@]56CCCN5C[C@H](F)C6)nc2c34)C1 (single isomer, unassigned) [Compound 640]
IC50 (GP2D cells): < 500 nM | IC50 (A549 cells): < 5000 nM

C[C@@H](O)[C@H]1COc2c(Cl)c(-c3ccc(F)c4sc(N)c(C#N)c34)c(F)c3nc(OC[C@@]45CCCN4C[C@H](F)C5)nc(c23)N1CCC(F)F (single isomer, unassigned) [Compound 820]
IC50 (K-Ras G12D): < 100 nM | IC50 (K-Ras G12S): < 100 nM | IC50 (K-Ras G12V): < 100 nM | IC50 (K-Ras WT): < 100 nM | IC50 (GP2D cells): < 500 nM | IC50 (A549 cells): < 5000 nM | IC50 (SW620 cells): < 5000 nM

C=C[C@H]1COc2c(Cl)c(-c3ccc(F)c4sc(N)c(C#N)c34)c(F)c3nc(OC[C@@]45CCCN4C[C@H](F)C5)nc(c23)N1CC(F)F (single isomer, unassigned) [Compound 890]
IC50 (K-Ras G12D): < 100 nM | IC50 (K-Ras G12S): < 100 nM | IC50 (K-Ras G12V): < 100 nM | IC50 (K-Ras WT): < 100 nM | IC50 (GP2D cells): < 500 nM | IC50 (A549 cells): < 5000 nM | IC50 (SW620 cells): < 5000 nM

CC(O)C1COc2c(Cl)c(-c3ccc(F)c4sc(N)c(C#N)c34)c(F)c3nc(OC[C@@]45CCCN4C[C@H](F)C5)nc(c23)N1CC(F)F (single isomer, unassigned) [Compound 899]
IC50 (K-Ras G12D): < 100 nM | IC50 (K-Ras G12S): < 100 nM | IC50 (K-Ras G12V): < 100 nM | IC50 (K-Ras WT): < 100 nM | IC50 (GP2D cells): < 500 nM | IC50 (A549 cells): < 5000 nM | IC50 (SW620 cells): < 5000 nM

CC1COc2c(Cl)c(-c3ccc(F)c4sc(N)c(C#N)c34)c(F)c3nc(OC[C@@]45CCCN4C[C@H](F)C5)nc(c23)N1CC(F)F (single isomer, unassigned) [Compound 1073]
IC50 (GP2D cells): < 500 nM | IC50 (A549 cells): < 5000 nM

CCN1CCOc2c(Cl)c(-c3ccc(F)c4sc(N)c(C#N)c34)c(F)c3nc(OC[C@@]45CCCN4C[C@H](F)C5)nc1c23 [Compound 625, 2-amino-4-(8-chloro-4-ethyl-10-fluoro-2-(((2R,7aS)-2-fluorotetrahydro-1H-pyrrolizin-7a(5H)-yl)methoxy)-5,6-dihydro-4H-[1,4]oxazepino[5,6,7-de]quinazolin-9-yl)-7-fluorobenzo[b]thiophene-3-carbonitrile]
IC50 (K-Ras G12D): < 100 nM | IC50 (K-Ras G12S): < 100 nM | IC50 (K-Ras G12V): < 100 nM | IC50 (K-Ras WT): < 100 nM | IC50 (GP2D cells): < 500 nM | IC50 (A549 cells): < 5000 nM

CC[C@H]1COc2c(Cl)c(-c3ccc(F)c4sc(N)c(C#N)c34)c(F)c3nc(OC[C@@]45CCCN4C[C@H](F)C5)nc(c23)N1CC(F)F [Compound 877, 2-amino-4-((5S)-8-chloro-4-(2,2-difluoroethyl)-5-ethyl-10-fluoro-2-(((2R,7aS)-2-fluorotetrahydro-1H-pyrrolizin-7a(5H)-yl)methoxy)-5,6-dihydro-4H-[1,4]oxazepino[5,6,7-de]quinazolin-9-yl)-7-fluorobenzo[b]thiophene-3-carbonitrile]
IC50 (GP2D cells): < 500 nM | IC50 (A549 cells): < 5000 nM

N#Cc1c(N)sc2c(F)ccc(-c3c(Cl)c4c5c(nc(OC[C@@]67CCCN6C[C@H](F)C7)nc5c3F)N(CC3CC3C#N)CCO4)c12 (stereo partly drawn) [Compound 962, 2-amino-4-(8-chloro-4-((2-cyanocyclopropyl)methyl)-10-fluoro-2-(((2R,7aS)-2-fluorotetrahydro-1H-pyrrolizin-7a(5H)-yl)methoxy)-5,6-dihydro-4H-[1,4]oxazepino[5,6,7-de]quinazolin-9-yl)-7-fluorobenzo[b]thiophene-3-carbonitrile]
IC50 (GP2D cells): < 500 nM | IC50 (A549 cells): < 5000 nM | IC50 (SW620 cells): < 5000 nM

N#Cc1c(N)sc2c(F)ccc(-c3c(Cl)c4c5c(nc(OC[C@@]67CCCN6C[C@H](F)C7)nc5c3F)N(CC(F)F)CC(C(F)(F)F)O4)c12 (stereo partly drawn) [Compound 1008, 2-amino-4-(8-chloro-4-(2,2-difluoroethyl)-10-fluoro-2-(((2R,7aS)-2-fluorotetrahydro-1H-pyrrolizin-7a(5H)-yl)methoxy)-6-(trifluoromethyl)-5,6-dihydro-4H-[1,4]oxazepino[5,6,7-de]quinazolin-9-yl)-7-fluorobenzo[b]thiophene-3-carbonitrile]
IC50 (K-Ras G12D): < 100 nM | IC50 (K-Ras G12V): < 100 nM | IC50 (K-Ras WT): < 100 nM | IC50 (GP2D cells): < 500 nM | IC50 (A549 cells): < 5000 nM | IC50 (SW620 cells): < 5000 nM

CC1Oc2c(Cl)c(-c3ccc(F)c4sc(N)c(C#N)c34)c(F)c3nc(OC[C@@]45CCCN4C[C@H](F)C5)nc(c23)N(CC(F)F)C1CC#N (stereo partly drawn) [Compound 1015, 2-amino-4-(8-chloro-5-(cyanomethyl)-4-(2,2-difluoroethyl)-10-fluoro-2-(((2R,7aS)-2-fluorotetrahydro-1H-pyrrolizin-7a(5H)-yl)methoxy)-6-methyl-5,6-dihydro-4H-[1,4]oxazepino[5,6,7-de]quinazolin-9-yl)-7-fluorobenzo[b]thiophene-3-carbonitrile]
IC50 (GP2D cells): < 500 nM | IC50 (A549 cells): < 5000 nM | IC50 (SW620 cells): < 5000 nM

N#Cc1c(N)sc2c(F)ccc(-c3c(Cl)c4c5c(nc(OC[C@@]67CCCN6C[C@H](F)C7)nc5c3F)N(C3CCCC3O)CCO4)c12 (stereo partly drawn) [Compound 1017, 2-amino-4-(8-chloro-10-fluoro-2-(((2R,7aS)-2-fluorotetrahydro-1H-pyrrolizin-7a(5H)-yl)methoxy)-4-(2-hydroxycyclopentyl)-5,6-dihydro-4H-[1,4]oxazepino[5,6,7-de]quinazolin-9-yl)-7-fluorobenzo[b]thiophene-3-carbonitrile]
IC50 (GP2D cells): < 500 nM | IC50 (A549 cells): < 5000 nM

N#Cc1c(N)sc2c(F)ccc(-c3c(Cl)c4c5c(nc(OC[C@@]67CCCN6C[C@H](F)C7)nc5c3F)N(CC(F)F)C(CO)CO4)c12 (stereo partly drawn) [Compound 1037, 2-amino-4-(8-chloro-4-(2,2-difluoroethyl)-10-fluoro-2-(((2R,7aS)-2-fluorotetrahydro-1H-pyrrolizin-7a(5H)-yl)methoxy)-5-(hydroxymethyl)-5,6-dihydro-4H-[1,4]oxazepino[5,6,7-de]quinazolin-9-yl)-7-fluorobenzo[b]thiophene-3-carbonitrile]
IC50 (GP2D cells): < 500 nM | IC50 (A549 cells): < 5000 nM | IC50 (SW620 cells): < 5000 nM

N#Cc1c(N)sc2c(F)ccc(-c3c(Cl)c4c5c(nc(OC[C@@]67CCCN6C[C@H](F)C7)nc5c3F)N(CC(F)F)C(C(F)F)CO4)c12 (stereo partly drawn) [Compound 1105, 2-amino-4-(8-chloro-4-(2,2-difluoroethyl)-5-(difluoromethyl)-10-fluoro-2-(((2R,7aS)-2-fluorotetrahydro-1H-pyrrolizin-7a(5H)-yl)methoxy)-5,6-dihydro-4H-[1,4]oxazepino[5,6,7-de]quinazolin-9-yl)-7-fluorobenzo[b]thiophene-3-carbonitrile]
IC50 (K-Ras G12D): < 100 nM | IC50 (K-Ras G12S): < 100 nM | IC50 (K-Ras WT): < 100 nM | IC50 (GP2D cells): < 500 nM | IC50 (A549 cells): < 5000 nM | IC50 (SW620 cells): < 5000 nM

N#Cc1c(N)sc2c(F)ccc(-c3c(Cl)c4c5c(nc(OC[C@@]67CCCN6C[C@H](F)C7)nc5c3F)N(C3CC3)CCCO4)c12 [Compound 1204, 2-amino-4-(9-chloro-4-cyclopropyl-11-fluoro-2-(((2R,7aS)-2-fluorotetrahydro-1H-pyrrolizin-7a(5H)-yl)methoxy)-4,5,6,7-tetrahydro-[1,5]oxazocino[4,3,2-de]quinazolin-10-yl)-7-fluorobenzo[b]thiophene-3-carbonitrile]
IC50 (GP2D cells): < 500 nM | IC50 (A549 cells): < 5000 nM | IC50 (SW620 cells): < 5000 nM

C[C@@H]1CCOc2c(Cl)c(-c3ccc(F)c4sc(N)c(C#N)c34)c(F)c3nc(OC[C@@]45CCCN4C[C@H](F)C5)nc(c23)N1 [Compound 1219, 2-amino-4-((5R)-9-chloro-11-fluoro-2-(((2R,7aS)-2-fluorotetrahydro-1H-pyrrolizin-7a(5H)-yl)methoxy)-5-methyl-4,5,6,7-tetrahydro-[1,5]oxazocino[4,3,2-de]quinazolin-10-yl)-7-fluorobenzo[b]thiophene-3-carbonitrile]
IC50 (K-Ras G12D): < 100 nM | IC50 (K-Ras G12S): < 100 nM | IC50 (K-Ras G12V): < 100 nM | IC50 (K-Ras WT): < 100 nM | IC50 (GP2D cells): < 500 nM | IC50 (SW620 cells): < 5000 nM

C[C@@H]1CCOc2c(Cl)c(-c3ccc(F)c4sc(N)c(C#N)c34)c(F)c3nc(OC[C@@]45CCCN4C[C@H](F)C5)nc(c23)N1C [Compound 1222, 2-amino-4-((R)-9-chloro-11-fluoro-2-(((2R,7aS)-2-fluorotetrahydro-1H-pyrrolizin-7a(5H)-yl)methoxy)-4,5-dimethyl-4,5,6,7-tetrahydro-[1,5]oxazocino[4,3,2-de]quinazolin-10-yl)-7-fluorobenzo[b]thiophene-3-carbonitrile]
IC50 (K-Ras G12D): < 100 nM | IC50 (K-Ras G12S): < 100 nM | IC50 (K-Ras G12V): < 100 nM | IC50 (K-Ras WT): < 100 nM | IC50 (GP2D cells): < 500 nM | IC50 (SW620 cells): < 5000 nM
